Measured values from patent US20210128566A1, “NOVEL FUNCTIONALIZED PURINE-2,6-DIONES AND THEIR USE IN MEDICINE” (THOMAS HELLEDAYS STIFTELSE FÖR MEDICINSK FORSKNING, priority 2017, published 2021).

What follows are compounds tested against recombinant human NUDT5 (Homo sapiens, UniProt Q9UKK9) (assay: NUDT5 inhibitor activity by malachite green reporter assay). Conditions: Table 3; 6 nM NUDT5, 50 μM ADP-Ribose, 15 minutes at room temperature.
Type: biochemical
How it was run: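 Coupled ADP-ribose hydrolysis in 10 mM Tris-acetate pH 8.0, 40 mM NaCl, 10 mM Mg acetate, 0.005% Tween-20, 1 mM DTT: 6 nM NUDT5, 50 μM ADP-Ribose, 10 U/ml alkaline phosphatase, 15 min at room temperature. Pi read by malachite green at 630 nm; compounds 100 μM–1.7 nM, 3-fold; IC50 by curve fit.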

| IC50 | Compound |
| --- | --- |
| > 1000 nM | CCN(CC)c1nc2c(c(=O)n(C)c(=O)n2C)n1Cc1nnc(-c2ccc(Cl)c(Cl)c2)o1 [Example 4, 7-{[5-(3,4-dichlorophenyl)-1,3,4-oxadiazol-2-yl]methyl}-8-(diethylamino)-1,3-dimethyl-2,3,6,7-tetrahydro-1H-purine-2,6-dione] |
| 922 nM | Cc1cccc(-c2nnc(Cn3c(N4CCN(CCO)CC4)nc4c3c(=O)n(C)c(=O)n4C)o2)c1 [Example 56, 8-[4-(2-hydroxyethyl)piperazin-1-yl]-1,3-dimethyl-7-{[5-(3-methylphenyl)-1,3,4-oxadiazol-2-yl]methyl}-2,3,6,7-tetrahydro-1H-purine-2,6-dione] |
| 11.9 nM | C[C@@H]1CN(c2nc3c(c(=O)n(C)c(=O)n3C)n2Cc2nnc(-c3ccc(Cl)c(Cl)c3)o2)CCN1 [Example 47, 7-{[5-(3,4-dichlorophenyl)-1,3,4-oxadiazol-2-yl]methyl}-1,3-dimethyl-8-[(3R)-3-methylpiperazin-1-yl]-2,3,6,7-tetrahydro-1H-purine-2,6-dione] |
| 246 nM | CCCc1nc2c(c(=O)n(C)c(=O)n2C)n1Cc1nnc(-c2ccc(Cl)c(Cl)c2)o1 [Example 61, 7-{[5-(3,4-dichlorophenyl)-1,3,4-oxadiazol-2-yl]methyl}-1,3-dimethyl-8-propyl-2,3,6,7-tetrahydro-1H-purine-2,6-dione] |
| 26.8 nM | COC1CCN(c2nc3c(c(=O)n(C)c(=O)n3C)n2Cc2nnc(-c3ccc(Cl)c(Cl)c3)o2)CC1 [Example 43, 7-{[5-(3,4-dichlorophenyl)-1,3,4-oxadiazol-2-yl]methyl}-8-(4-methoxypiperidin-1-yl)-1,3-dimethyl-2,3,6,7-tetrahydro-1H-purine-2,6-dione] |
| > 1000 nM | Cc1cccc(-c2nnc(Cn3c(N4CCN(C5CCCCC5)CC4)nc4c3c(=O)n(C)c(=O)n4C)o2)c1 [Example 59, 8-(4-cyclohexylpiperazin-1-yl)-1,3-dimethyl-7-{[5-(3-methylphenyl)-1,3,4-oxadiazol-2-yl]methyl}-2,3,6,7-tetrahydro-1H-purine-2,6-dione] |
| 24.4 nM | CCS(=O)(=O)c1nc2c(c(=O)n(C)c(=O)n2C)n1Cc1nnc(-c2ccc(Cl)c(Cl)c2)o1 [Example 23, 7-{[5-(3,4-dichlorophenyl)-1,3,4-oxadiazol-2-yl]methyl}-8-(ethanesulfonyl)-1,3-dimethyl-2,3,6,7-tetrahydro-1H-purine-2,6-dione] |
| 356 nM | CCCNc1nc2c(c(=O)n(C)c(=O)n2C)n1Cc1nnc(-c2cccc(C)c2)o1 [Example 49, 1,3-dimethyl-7-{[5-(3-methylphenyl)-1,3,4-oxadiazol-2-yl]methyl}-8-(propylamino)-2,3,6,7-tetrahydro-1H-purine-2,6-dione] |
| 35.1 nM | Cn1c(=O)c2c(nc(N3CCC4(CC3)NC(=O)NC4=O)n2Cc2nnc(-c3ccc(Cl)c(Cl)c3)o2)n(C)c1=O [Example 22, 8-(7-{[5-(3,4-dichlorophenyl)-1,3,4-oxadiazol-2-yl]methyl}-1,3-dimethyl-2,6-dioxo-2,3,6,7-tetrahydro-1H-purin-8-yl)-1,3,8-triazaspiro[4.5]decane-2,4-dione] |
| 34 nM | Cn1c(=O)c2c(nc(N3CCC3)n2Cc2nnc(-c3ccc(Cl)c(Cl)c3)o2)n(C)c1=O [Example 36, 8-(azetidin-1-yl)-7-{[5-(3,4-dichlorophenyl)-1,3,4-oxadiazol-2-yl]methyl}-1,3-dimethyl-2,3,6,7-tetrahydro-1H-purine-2,6-dione] |
| 759 nM | Cn1c(=O)c2c(nc(N3CCOCC3)n2Cc2nnc(-c3ccc(Cl)c(Cl)c3)o2)n(C)c1=O [Example 13, 7-{[5-(3,4-dichlorophenyl)-1,3,4-oxadiazol-2-yl]methyl}-1,3-dimethyl-8-(morpholin-4-yl)-2,3,6,7-tetrahydro-1H-purine-2,6-dione] |
| 22.7 nM | Cn1c(=O)c2c(nc(S(=O)(=O)C3CCCCC3)n2Cc2nnc(-c3ccc(Cl)c(Cl)c3)o2)n(C)c1=O [Example 24, 8-(cyclohexanesulfonyl)-7-{[5-(3,4-dichlorophenyl)-1,3,4-oxadiazol-2-yl]methyl}-1,3-dimethyl-2,3,6,7-tetrahydro-1H-purine-2,6-dione] |
| 22.9 nM | CC1CCN(c2nc3c(c(=O)n(C)c(=O)n3C)n2Cc2nnc(-c3ccc(Cl)c(Cl)c3)o2)CC1 [Example 10, 7-{[5-(3,4-dichlorophenyl)-1,3,4-oxadiazol-2-yl]methyl}-1,3-dimethyl-8-(4-methylpiperidin-1-yl)-2,3,6,7-tetrahydro-1H-purine-2,6-dione] |
| 14.9 nM | CN(C)C1CCN(c2nc3c(c(=O)n(C)c(=O)n3C)n2Cc2nnc(-c3ccc(Cl)c(Cl)c3)o2)CC1 [Example 45, 7-{[5-(3,4-dichlorophenyl)-1,3,4-oxadiazol-2-yl]methyl}-8-[4-(dimethylamino)piperidin-1-yl]-1,3-dimethyl-2,3,6,7-tetrahydro-1H-purine-2,6-dione] |

Same assay, conditions: Table 4; 6 nM NUDT5, 50 μM ADP-Ribose, 15 minutes at room temperature

| IC50 | Compound |
| --- | --- |
| 157 nM | COc1cc(-c2nnc(Cn3c(NCCC(N)=O)nc4c3c(=O)n(C)c(=O)n4C)o2)ccc1C [Example 132, 3-[(7-{[5-(3-methoxy-4-methylphenyl)-1,3,4-oxadiazol-2-yl]methyl}-1,3-dimethyl-2,6-dioxo-2,3,6,7-tetrahydro-1H-purin-8-yl)amino]propanamide] |
| 24400 nM | Cn1c(=O)c2c(nc(N3CCNCC3)n2Cc2nnc(-c3ccc(CS(C)(=O)=O)cc3)o2)n(C)c1=O [Example 122, 7-({5-[4-(methanesulfonylmethyl)phenyl]-1,3,4-oxadiazol-2-yl}methyl)-1,3-dimethyl-8-(piperazin-1-yl)-2,3,6,7-tetrahydro-1H-purine-2,6-dione] |
| 620 nM | Cn1c(=O)c2c(nc(Cl)n2Cc2nnc(-c3ccc(Cl)cc3)o2)n(C)c1=O [Example 89, 8-chloro-7-{[5-(4-chlorophenyl)-1,3,4-oxadiazol-2-yl]methyl}-1,3-dimethyl-2,3,6,7-tetrahydro-1H-purine-2,6-dione] |
| 309 nM | Cn1c(=O)c2c(nc(N3CCNCC3)n2Cc2nnc(-c3ccc4[nH]ncc4c3)o2)n(C)c1=O [Example 124, 7-{[5-(1H-indazol-5-yl)-1,3,4-oxadiazol-2-yl]methyl}-1,3-dimethyl-8-(piperazin-1-yl)-2,3,6,7-tetrahydro-1H-purine-2,6-dione] |
| 80.5 nM | Cn1c(=O)c2c(nc(N3CCNCC3)n2Cc2nnc(-c3ccc4cc[nH]c4c3)o2)n(C)c1=O [Example 120, 7-{[5-(1H-indol-6-yl)-1,3,4-oxadiazol-2-yl]methyl}-1,3-dimethyl-8-(piperazin-1-yl)-2,3,6,7-tetrahydro-1H-purine-2,6-dione] |
| 1380 nM | Cn1c(=O)c2c(nc(Cl)n2Cc2nnc(-c3ccc(Cl)nc3)o2)n(C)c1=O [Example 95, 8-chloro-7-{[5-(6-chloropyridin-3-yl)-1,3,4-oxadiazol-2-yl]methyl}-1,3-dimethyl-2,3,6,7-tetrahydro-1H-purine-2,6-dione] |
| 51.6 nM | Cn1c(=O)c2c(nc(N3CCNCC3)n2Cc2nnc(-c3ccc(C(F)(F)F)cc3)o2)n(C)c1=O [Example 121, 1,3-dimethyl-8-(piperazin-1-yl)-7-({5-[4-(trifluoromethyl)phenyl]-1,3,4-oxadiazol-2-yl}methyl)-2,3,6,7-tetrahydro-1H-purine-2,6-dione] |
| 286 nM | Cn1c(=O)c2c(nc(N3CCNCC3)n2Cc2nnc(-c3ccc([N+](=O)[O-])cc3)o2)n(C)c1=O [Example 115, 1,3-dimethyl-7-{[5-(4-nitrophenyl)-1,3,4-oxadiazol-2-yl]methyl}-8-(piperazin-1-yl)-2,3,6,7-tetrahydro-1H-purine-2,6-dione] |
| 20.2 nM | Cn1c(=O)c2c(nc(N3CCNC(=O)C3)n2Cc2nnc(-c3ccc(Cl)c(Cl)c3)o2)n(C)c1=O [Example 83, 7-{[5-(3,4-dichlorophenyl)-1,3,4-oxadiazol-2-yl]methyl}-1,3-dimethyl-8-(3-oxopiperazin-1-yl)-2,3,6,7-tetrahydro-1H-purine-2,6-dione] |
| 491 nM | COc1ccc(-c2cc(Cn3c(N4CCNCC4)nc4c3c(=O)n(C)c(=O)n4C)on2)cc1 [Example 78, 7-{[3-(4-methoxyphenyl)-1,2-oxazol-5-yl]methyl}-1,3-dimethyl-8-(piperazin-1-yl)-2,3,6,7-tetrahydro-1H-purine-2,6-dione] |
| 19700 nM | COc1ccc(-c2cc(Cn3c(Cl)nc4c3c(=O)n(C)c(=O)n4C)on2)cc1 [Example 77, 8-chloro-7-{[3-(4-methoxyphenyl)-1,2-oxazol-5-yl]methyl}-1,3-dimethyl-2,3,6,7-tetrahydro-1H-purine-2,6-dione] |
| 184 nM | COc1ccc(CNc2nc3c(c(=O)n(C)c(=O)n3C)n2Cc2nnc(-c3ccc(Cl)c(Cl)c3)o2)c(OC)c1 [Example 86, 7-{[5-(3,4-dichlorophenyl)-1,3,4-oxadiazol-2-yl]methyl}-8-{[(2,4-dimethoxyphenyl)methyl]amino}-1,3-dimethyl-2,3,6,7-tetrahydro-1H-purine-2,6-dione] |
| 24.1 nM | COc1cc(-c2nnc(Cn3c(N(C)CCN(C)C)nc4c3c(=O)n(C)c(=O)n4C)o2)ccc1C [Example 137, 8-{[2-(dimethylamino)ethyl](methyl)amino}-7-{[5-(3-methoxy-4-methylphenyl)-1,3,4-oxadiazol-2-yl]methyl}-1,3-dimethyl-2,3,6,7-tetrahydro-1H-purine-2,6-dione] |
| 239 nM | Cn1c(=O)c2c(nc(Cl)n2Cc2cnc(-c3ccc(Cl)cc3)s2)n(C)c1=O [Example 75, 8-chloro-7-{[2-(4-chlorophenyl)-1,3-thiazol-5-yl]methyl}-1,3-dimethyl-2,3,6,7-tetrahydro-1H-purine-2,6-dione] |
| 306 nM | COc1cc(-c2nnc(Cn3c(SCCNC(C)=O)nc4c3c(=O)n(C)c(=O)n4C)o2)ccc1C [Example 141, N-{2-[(7-{[5-(3-methoxy-4-methylphenyl)-1,3,4-oxadiazol-2-yl]methyl}-1,3-dimethyl-2,6-dioxo-2,3,6,7-tetrahydro-1H-purin-8-yl)sulfanyl]ethyl}acetamide] |
